The values below come from US5952321A, “Substituted azetidinones as anti-inflammatory and antidegenerative agents” (Merck & Co., Inc., priority 1996, dated 1999).

Molecules are shown by their SMILES. Like-named read-outs stand apart in the source and are kept apart here.

The experiment addresses T1, Human Polymorphonuclear Leukocyte Elastase (Homo sapiens, UniProt P08246).
T1 sequence (P08246 30-267): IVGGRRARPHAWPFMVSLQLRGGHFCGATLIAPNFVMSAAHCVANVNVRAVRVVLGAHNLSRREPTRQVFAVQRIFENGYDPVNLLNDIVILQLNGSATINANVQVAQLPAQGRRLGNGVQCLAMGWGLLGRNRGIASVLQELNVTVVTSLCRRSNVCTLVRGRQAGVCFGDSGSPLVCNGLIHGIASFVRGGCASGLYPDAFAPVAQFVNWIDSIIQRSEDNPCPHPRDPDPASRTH
Description: Inhibition of human polymorphonuclear leukocyte elastase via hydrolysis of Boc-AAPAN or Boc-AAPVN. In kind it is biochemical. The settings on record: second order rate constant for inactivation of the enzyme, read-out: Kobs /[I]. Put shortly:
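Crude human PMN extract was added to 0.2 mM Boc-AAPAN or Boc-AAPVN substrate solution in 0.05 M TES pH 7.5 containing inhibitor in DMSO; extract volume was adjusted per batch activity. Hydrolysis was followed as ΔOD/min at 410 mμ, after a pre-check for spontaneous hydrolysis. Values are ID50 (μg/ml, 50% inhibition at 2 min), Ki (μM) or kobs/I.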

Regarding `CCC[C@@H](NC(=O)N1C(=O)C(CC)(CC)[C@@H]1Oc1ccc(C2CCCN2CCOCC)cc1)c1ccc(C)cc1` (stereo partly drawn) [R4=CH2 CH2 OEt; R5+R6=--CH2 CH2 CH2 --], the kinact/KI (pH 7.5, Table I) was 1.1e+06 M⁻¹ s⁻¹. Same read-out and setting: the figure for `CCC[C@@H](NC(=O)N1C(=O)C(CC)(CC)[C@@H]1Oc1ccc([C@@H](C)N(C)CCOC)cc1)c1ccc(C)cc1` [R4=Me; R5=CH2 CH2 OMe; R6=(R)--Me, (4S)-3,3-diethyl-4-{(R)-4-[1-((2-methoxyethyl)methylamino)ethyl]phenoxy}-1-[(R)-α-n-propyl-(4-methyl)benzylaminocarbonyl]azetidin-2-one] is 525000 M⁻¹ s⁻¹. On the same count and under the same terms, the figure for `CCC[C@@H](NC(=O)N1C(=O)C(CC)(CC)[C@@H]1Oc1ccc(C(C)N(C)CCOC)cc1)c1ccc(C)cc1` (stereo partly drawn) [R4=Me; R5=CH2 CH2 OMe; R6=Me, (4S)-3,3-Diethyl-1-[(R)-α-n-propyl-(4-methyl)benzylaminocarbonyl]-4-[(R,S)-4-((1-(2-methoxyethyl)methylamino)ethyl)phenoxy]azetidin-2-one] is 600000 M⁻¹ s⁻¹; for `CCC[C@@H](NC(=O)N1C(=O)C(CC)(CC)[C@@H]1Oc1ccc(CN(CC)C(C)COC)cc1)c1ccc(C)cc1` (stereo partly drawn) [R4=Et; R5=CH(Me)CH2 OMe; R6=H] it is 670000 M⁻¹ s⁻¹. Still for that read-out and setting: the figure for `CCC[C@@H](NC(=O)N1C(=O)C(CC)(CC)[C@@H]1Oc1ccc(CNC(=O)Cc2cccnc2)cc1)c1ccc(C)cc1` [R4=H; R5=COCH2-3-pyridyl; R6=H, (4S)-3,3-Diethyl-1-[(R)-α-(n-propyl)-4-(methyl)benzylaminocarbonyl]-4-[(4-((3-pyridyl)methylcarbonyl)aminomethyl)phenoxy]azetidin-2-one] is 1.25e+06 M⁻¹ s⁻¹; for `CCC[C@@H](NC(=O)N1C(=O)C(CC)(CC)[C@@H]1Oc1ccc(CN(C)CCOCCOC)cc1)c1ccc(C)cc1` [R4=Me; R5=CH2 CH2 OCH2 CH2 OMe; R6=H] it is 1.9e+06 M⁻¹ s⁻¹; for `CCC[C@@H](NC(=O)N1C(=O)C(CC)(CC)[C@@H]1Oc1ccc(Cn2ccnc2CC)cc1)c1ccc(C)cc1` [R4+R5=--CHCHNCEt--; R6=H] it is 2.25e+06 M⁻¹ s⁻¹.

In the case of `CCC[C@@H](NC(=O)N1C(=O)C(CC)(CC)[C@@H]1Oc1ccc(CN(C)CC2CCCO2)cc1)c1ccc(C)cc1` (stereo partly drawn) [R4=Me; R5=CH2 CH(CH2 CH2 CH2 O); R6=H], the kinact/KI (pH 7.5, Table I) worked out at 1e+06 M⁻¹ s⁻¹.

Take `CCC[C@@H](NC(=O)N1C(=O)C(CC)(CC)[C@@H]1Oc1ccc(CN(C)CCOC)cc1)c1ccc(OC)cc1`: under “pH 7.5, Table III”, the kinact/KI turned out to be 900000 M⁻¹ s⁻¹. For `CCC[C@@H](NC(=O)N1C(=O)C(CC)(CC)[C@@H]1Oc1ccc(C(C)N(C)CCOCCOC)cc1)c1ccc(C)cc1` (stereo partly drawn) [R4=Me; R5=CH2 CH2 OCH2 CH2 OMe; R6=Me], the kinact/KI (pH 7.5, Table I) worked out at 825000 M⁻¹ s⁻¹. Same read-out and setting: the figure for `CCC[C@@H](NC(=O)N1C(=O)C(CC)(CC)[C@@H]1Oc1ccc(CN(C)C(C)C)cc1)c1ccc(C)cc1` [R4=Me; R5=i-Pr; R6=H] is 850000 M⁻¹ s⁻¹; for `CCC[C@@H](NC(=O)N1C(=O)C(CC)(CC)[C@@H]1Oc1ccc(C2CCCN2CCOC)cc1)c1ccc(C)cc1` (mixture of isomers) [R4=CH2 CH2 OMe; R5+R6=--CH2 CH2 CH2 --, 3,3-Diethyl-1-[(R)-α-(n-propyl)-4-(methyl)benzylaminocarbonyl]-4-(S)-[4-{2-(RS)-(N-(2-methoxyethyl)pyrrolidino)}phenoxy]azetidin-2-one] it is 940000 M⁻¹ s⁻¹; for `CCC[C@@H](NC(=O)N1C(=O)C(CC)(CC)[C@@H]1Oc1ccc(CNC(=O)NC(C)C)cc1)c1ccc(C)cc1` [R4=H; R5=CONH isoPr; R6=H, (4S)-3,3-Diethyl-1-[(R)-α-(n-propyl)-4-(methyl)benzylaminocarbonyl]-4-[(4-((N-isopropyl)aminocarbonyl)aminomethyl)phenoxy]azetidin-2-one] it is 1.1e+06 M⁻¹ s⁻¹. On the same count and under the same terms, the figure for `CCC[C@@H](NC(=O)N1C(=O)C(CC)(CC)[C@@H]1Oc1ccc(CN2CCN(C(C)C)CC2)cc1)c1ccc(C)cc1` [R4+R5=--CH2 CH2 N(i-Pr)CH2 CH2 --; R6=H] is 1.2e+06 M⁻¹ s⁻¹; for `CCC[C@@H](NC(=O)N1C(=O)C(CC)(CC)[C@@H]1Oc1ccc(CN(C)CCOC(=O)NC)cc1)c1ccc(C)cc1` [R4=Me; R5=CH2 CH2 OCONHMe; R6=H] it is 700000 M⁻¹ s⁻¹.
